Structures are written as SMILES. Counter-ions that a name gives are not always drawn. Like-named read-outs stand apart in the source and are kept apart here. Bounds are passed on as bounds.

The target of this test is MCH receptor (Homo sapiens, UniProt Q99705). As to the kind of experiment: High throughput functional screening FLIPR/FDSS6000: inhibition of MCH-evoked intracellular Ca2+ changes. In kind it is cell-based. From the text: Subsequently, a functional based assay was used to confirm the lead hits, referred to as FLIPR™ (the Fluorometric Imaging Plate Reader) and FDSS6000™ (Functional Drug Screening System). This assay utilized 3 non-endozenous, constitutively active version of the MCH receptor.
The FLIPR and FDSS assays are able to detect intracellular Ca^2+ concentration in cells, which can be utilized to assess receptor activation and determine whether a candidate compound is an, for example, antagonist, inverse agonist or agonist to a Gq-coupled receptor. The concentration of free Ca^2+ in the cytosol of any cell is extremely low, whereas its concentration in the extracellular fluid and endoplasmic reticulum (ER) is very high. Thus, there is a large gradient tending to drive Ca^2+ into the cytosol across both the plasma membrane and ER. The FLIPR™ and FDSS6000™ systems (Molecular Devices Corporation, HAMAMATSU Photonics K.K.) are designed to perform functional cell-based assays, such as the measurement of intracellular calcium for high-throughput screening, The measurement of fluorescent is associated with calcium release upon activation of the Gq-coupled receptors.
Fluorometric Imaging Plate Reader system was used to allow for rapid, kinetic measurements of intracellular fluorescence in 96 well microplates (or 384 well microplates). Simultaneous measurements of fluorescence in all wells can be made by FLIPR or FDSS6000™ every second with high sensitivity and precision. These systems are ideal for measuring cell-based functional assays such as monitoring the intracellular calcium fluxes that occur within seconds after activation of the Gq coupled receptor.
Briefly, the cells are seeded into 96 well at 5.5×10^4 cells/well with complete culture media (Dulbecco's Modified Eagle Medium with 10% fetal bovine serum, 2 mMi L-glutamine, 1 mM sodium pyruvate and 0.5 mg/ml G418, pH 7.4) for the assay next day. On the day of assay, the media is removed and the cells are incubated with 100 μl of loading buffer (4 μM Fluo4-AM in complete culture media containing 2.5 mM Probenicid, 0.5 mg/ml and 0.2% bovine serum albumin) in 5% CO2 incubator at 37° C. for 1 hr. The loading buffer is removed, and the cells are washed with wash buffer (Hank's Balanced Salt Solution containing 2.5 mM Probenicid, 20 mM HEPES, 0.5 mg/ml and 0.2% bovine serum albumm, pH 7.4)). One hundred fifty μl of wash buffer containing various concentrations of test compound is added to the cells, and the cells are incubated in 5% CO2 incubator at 37° C. for 3 min. Fifty μl of wash buffer containing various concentration of MCH are added to each well, and transient changes in [Ca^2+]i evokled bee MCH are monoitored using the FLIPR, or FDSS in 96 shell plates at Ex. 488 nm and Em. 530 nm for 290 second. When antagonist activity of compound is tested, 50 nM of MCH is used.
Use of FLIPR™ and FDSS6000™ can be accomplished by following manufacturer's instruction (Molecular Device Corporation and HAMAMATSU Photonics K.K.).

Setting [1] is: antagonist activity, 50 nM of MCH, FLIPR or FDSS, read-out: IC50.
The mark [2] stands for this setting: class by percent of control at 10^−7 M or by IC50, read-out: class.

`CN(C)c1nc(N[C@H]2CC[C@@H](CNC(=O)Nc3cccc(Cl)c3Cl)CC2)nc2ccccc12` [Example 2, 1-(2,3-Dichloro-phenyl)-3-[cis-4-(4-dimethylamino-quinazolin-2-ylamino)-cyclohexylmethyl]-urea hydrochloride]: the IC50 under setting [1] is 13 nM.

With `CN(C)c1nc(N[C@H]2CC[C@@H](CNC(=O)Nc3c(Cl)cccc3Cl)CC2)nc2ccccc12` [Example 3, 1-(2,6-Dichloro-phenyl)-3-[cis-4-(4-dimethylamino-quinazolin-2-)ylamino)-cyclohexylmethyl]-urea hydrochloride], under setting [1], the IC50 was 4.9 nM.

Consider `Cc1cccc(Oc2ncccc2C(=O)N[C@H]2CC[C@@H](Nc3nc(N(C)C)c4ccccc4n3)CC2)c1` [Example 898, N-(cis-4-{[4-(Dimethylamino)quinazolin-2-yl]amino}cyclohexyl)-2-(3-methylphenoxy)-nicotinamide trifluoroacetate], for which the IC50 under setting [1] is 3.3 nM.

On to `CN(C)c1nc(N[C@H]2CC[C@@H](NC(=O)COc3ccc(F)c(F)c3)CC2)nc2ccccc12` [Example 909, 2-(3,4-Difluorophenoxy)-N-(cis-4-{[4-(dimethylamino)quinazolin-2-yl]amino}cyclohexyl)-acetamide trifluoroacetate], for which the IC50 under setting [1] was determined as 0.97 nM.

For the compound `CN(C)c1nc(N[C@H]2CC[C@@H](C(=O)NCc3ccc(F)cc3F)CC2)nc2ccccc12` [Example 922, cis-N-(2,4-Difluorobenzyl)-4-{[4-(dimethylamino)quinazolin-2-yl]amino}cyclohexanecarbozamide], under “class by percent of control at 10^-7 M or by IC50, read-out: class”, the IC50 is above 200 nM.

Regarding `CN(C)c1nc(N[C@H]2CC[C@@H](C(=O)NCc3ccccc3)CC2)nc2cc(F)c(F)cc12` [Example 992, cis-N-benzyl-4-{[4-(dimethylamino)-6,7-difluoroquinazolin-2-yl]amino}cyclohexanecarboxamide], under setting [2], the IC50 lay within 50 to 200 nM.

As to `COc1cc(CNC(=O)[C@H]2CC[C@@H](Nc3nc(N(C)C)c4cc(F)c(F)cc4n3)CC2)cc(OC)c1` [Example 993, cis-N-(3,5-dimethoxybenzyl)-4-{[4-(dimethylamino)-6,7-difluoroquinazolin-2-yl]amino}cyclohexanecarboxamide], under setting [2], the IC50 was 50 to 200 nM.

On to `COc1ccc(CNC(=O)[C@H]2CC[C@@H](Nc3nc(N(C)C)c4cc(F)c(F)cc4n3)CC2)cc1` [Example 994, cis-4-{[4-(dimethylamino)-6,7-difluoroquinazolin-2-yl]amino}-N-(4-methoxybenzyl)cyclohexanecarboxamide], for which the IC50 under setting [2] is below 50 nM.

`COc1cccc(CNC(=O)[C@H]2CC[C@@H](Nc3nc(N(C)C)c4cc(F)c(F)cc4n3)CC2)c1` [Example 995, cis-4-{[4-(dimethylamino)-6,7-difluoroquinazolin-2-yl]amino}-N-(3-methoxybenzyl)cyclohexanecarboxamide]: under setting [2], the IC50 lay in the range of 50 to 200 nM.

Turning to `CN(C)c1nc(N[C@H]2CC[C@@H](C(=O)NCc3ccc(Cl)nc3)CC2)nc2cc(F)c(F)cc12` [Example 996, cis-N-[(6-chloropyridin-3-yl)methyl]-4-{[4-(dimethylamino)-6,7-difluoroquinazolin-2-yl]amino}cyclohexanecarboxamide], under setting [2], the IC50 fell in the range of 50 to 200 nM.

Turning to `CN(C)c1nc(N[C@H]2CC[C@@H](C(=O)NCc3ccc(F)cc3F)CC2)nc2cc(F)c(F)cc12` [Example 997, cis-N-(2,4-difluorobenzyl)-4-{[4-(dimethylamino)-6,7-difluoroquinazolin-2-yl]amino}cyclohexanecarboxamide], the IC50 under setting [2] was above 200 nM.

Turning to `CN(C)c1nc(N[C@H]2CC[C@@H](C(=O)NCc3cccc(C(F)(F)F)c3)CC2)nc2cc(F)c(F)cc12` [Example 998, cis-4-{[4-(dimethylamino)-6,7-difluoroquinazolin-2-yl]amino}-N-[3-(trifluoromethyl)benzyl]cyclohexanecarboxamide], the IC50 under setting [2] is below 50 nM.

For `CN(C)c1nc(N[C@H]2CC[C@@H](C(=O)NCc3ccc(C(F)(F)F)cc3)CC2)nc2cc(F)c(F)cc12` [Example 999, cis-4-{[4-(dimethylamino)-6,7-difluoroquinazolin-2-yl]amino}-N-[4-(trifluoromethyl)benzyl]cyclohexanecarboxamide], under setting [2], the IC50 lay within 50 to 200 nM.

Regarding `CN(C)c1nc(N[C@H]2CC[C@@H](C(=O)NCc3ccc(Cl)cc3Cl)CC2)nc2cc(F)c(F)cc12` [Example 1000, cis-N-(2,4-dichlorobenzyl)-4-{[4-(dimethylamino)-6,7-difluoroquinazolin-2-yl]amino}cyclohexanecarboxamide], under setting [2], the IC50 is below 50 nM.

As for `CN(C)c1nc(N[C@H]2CC[C@@H](C(=O)NCc3cc(Cl)cc(Cl)c3)CC2)nc2cc(F)c(F)cc12` [Example 1001, cis-N-(3,5-dichlorobenzyl)-4-{[4-(dimethylamino)-6,7-difluoroquinazolin-2-yl]amino}cyclohexanecarboxamide], under setting [2], the IC50 is below 50 nM.

With `CN(C)c1nc(N[C@H]2CC[C@@H](C(=O)NCc3ccc(Br)cc3)CC2)nc2cc(F)c(F)cc12` [Example 1002, cis-N-(4-bromobenzyl)-4-{[4-(dimethylamino)-6,7-difluoroquinazolin-2-yl]amino}cyclohexanecarboxamide], the IC50 under setting [2] was below 50 nM.

Regarding `CN(C)c1nc(N[C@H]2CC[C@@H](C(=O)NCc3ccccc3Br)CC2)nc2cc(F)c(F)cc12` [Example 1003, cis-N-(2-bromobenzyl)-4-{[4-(dimethylamino)-6,7-difluoroquinazolin-2-yl]amino}cyclohexanecarboxamide], the IC50 under setting [2] was below 50 nM.

Take `CN(C)c1nc(N[C@H]2CC[C@@H](C(=O)NCc3ccc(OC(F)(F)F)cc3)CC2)nc2cc(F)c(F)cc12` [Example 1004, cis-4-{[4-(dimethylamino)-6,7-difluoroquinazolin-2-yl]amino}-N-[4-(trifluoromethoxy)benzyl]cyclohexanecarboxamide]: the IC50 under setting [2] was below 50 nM.

On to `CN(C)c1nc(N[C@H]2CC[C@@H](C(=O)NCc3cc(C(F)(F)F)cc(C(F)(F)F)c3)CC2)nc2cc(F)c(F)cc12` [Example 1005, cis-N-[3,5-bis(trifluoromethyl)benzyl]-4-{[4-(dimethylamino)-6,7-difluoroquinazolin-2-yl]amino}cyclohexanecarboxamide], for which, under setting [2], the IC50 was above 200 nM.

With `CN(C)c1nc(N[C@H]2CC[C@@H](C(=O)NCc3cccc(I)c3)CC2)nc2cc(F)c(F)cc12` [Example 1006, cis-4-{[4-(dimethylamino)-6,7-difluoroquinazolin-2-yl]amino}-N-(3-iodobenzyl)cyclohexanecarboxamide], under setting [2], the IC50 lay within 50 to 200 nM.

As for `Cc1ccc([C@H](C)NC(=O)[C@H]2CC[C@@H](Nc3nc(N(C)C)c4cc(F)c(F)cc4n3)CC2)cc1` [Example 1007, cis-4-{[4-(dimethylamino)-6,7-difluoroquinazolin-2-yl]amino}-N-[(1S)-1-(4-methylphenyl)ethyl]cyclohexanecarboxamide], the IC50 under setting [2] is below 50 nM.

Turning to `CN(C)c1nc(N[C@H]2CC[C@@H](NC(=O)Nc3cccc(OC(F)(F)F)c3)CC2)nc2ccccc12` [Example 1009, N-(cis-4-{[4-(dimethylamino)quinazolin-2-yl]amino}cyclohexyl)-N′-[3-(trifluoromethoxy)phenyl]urea], under setting [2], the IC50 is below 50 nM.

Take `COc1ccc(NC(=O)N[C@H]2CC[C@@H](Nc3nc(N(C)C)c4ccccc4n3)CC2)cc1OC` [Example 1010, N-(3,4-dimethoxyphenyl)-N′-(cis-4-{[4-(dimethylamino)quinazolin-2-yl]amino}cyclohexyl)urea]: the IC50 under setting [2] was below 50 nM.

With `CN(C)c1nc(N[C@H]2CC[C@@H](NC(=O)Nc3ccccc3Cl)CC2)nc2ccccc12` [Example 1011, N-(2-chlorophenyl)-N′-(cis-4-{[4-(dimethylamino)quinazolin-2-yl]amino}cyclohexyl)urea], under setting [2], the IC50 was in the range of 50 to 200 nM.

With `CN(C)c1nc(N[C@H]2CC[C@@H](NC(=O)Nc3c(Cl)cccc3Cl)CC2)nc2ccccc12` [Example 1012, N-(2,6-dichlorophenyl)-N′-(cis-4-{[4-(dimethylamino)quinazolin-2-yl]amino}cyclohexyl)urea], under setting [2], the IC50 was above 200 nM.
